Measurements reported in PubChem BioAssay (NCI).
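Compound exposure: 48 hours, 5 concentrations, 96-well plates. TGI denotes the concentration required for complete inhibition of growth.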

Tests used:
Experiment in all cases: NCI anticancer screen, dose series, 48 h
OVCAR-8 ovarian = test system: OVCAR-8 ovarian
SW-620 colon = test system: SW-620 colon
HCT-116 colon = test system: HCT-116 colon
DU-145 prostate = test system: DU-145 prostate
HOP-92 NSCLC = test system: HOP-92 NSCLC
SF-268 CNS = test system: SF-268 CNS
SNB-19 CNS = test system: SNB-19 CNS
UO-31 renal = test system: UO-31 renal
T-47D breast = test system: T-47D breast
SK-OV-3 ovarian = test system: SK-OV-3 ovarian
MDA-MB-231 breast = test system: MDA-MB-231 breast
CCRF-CEM leukemia = test system: CCRF-CEM leukemia
SF-539 CNS = test system: SF-539 CNS
MDA-N = test system: MDA-N
SK-MEL-28 melanoma = test system: SK-MEL-28 melanoma
MDA-MB-435 = test system: MDA-MB-435
K-562 leukemia = test system: K-562 leukemia
HL-60(TB) leukemia = test system: HL-60(TB) leukemia
EKVX NSCLC = test system: EKVX NSCLC
SK-MEL-2 melanoma = test system: SK-MEL-2 melanoma
CAKI-1 renal = test system: CAKI-1 renal
SR leukemia = test system: SR leukemia
HOP-62 NSCLC = test system: HOP-62 NSCLC
IGROV1 ovarian = test system: IGROV1 ovarian
SNB-75 CNS = test system: SNB-75 CNS
OVCAR-4 ovarian = test system: OVCAR-4 ovarian
LOX IMVI melanoma = test system: LOX IMVI melanoma
OVCAR-5 ovarian = test system: OVCAR-5 ovarian
ACHN renal = test system: ACHN renal
M14 melanoma = test system: M14 melanoma
A498 renal = test system: A498 renal
KM12 colon = test system: KM12 colon
NCI/ADR-RES ovarian = test system: NCI/ADR-RES ovarian
HT29 colon = test system: HT29 colon
COLO 205 colon = test system: COLO 205 colon
UACC-62 melanoma = test system: UACC-62 melanoma
HCC-2998 colon = test system: HCC-2998 colon
UACC-257 melanoma = test system: UACC-257 melanoma
HS 578T breast = test system: HS 578T breast
MOLT-4 leukemia = test system: MOLT-4 leukemia
PC-3 prostate = test system: PC-3 prostate
U251 CNS = test system: U251 CNS
MCF7 breast = test system: MCF7 breast
MALME-3M melanoma = test system: MALME-3M melanoma
786-0 renal = test system: 786-0 renal
NCI-H226 lung = test system: NCI-H226 lung
SK-MEL-5 melanoma = test system: SK-MEL-5 melanoma
A549 NSCLC = test system: A549 NSCLC
NCI-H460 lung = test system: NCI-H460 lung
NCI-H522 lung = test system: NCI-H522 lung
SF-295 CNS = test system: SF-295 CNS
HCT-15 colon = test system: HCT-15 colon
TK-10 renal = test system: TK-10 renal
RPMI-8226 leukemia = test system: RPMI-8226 leukemia
SN12C renal = test system: SN12C renal
OVCAR-3 ovarian = test system: OVCAR-3 ovarian
NCI-H23 lung = test system: NCI-H23 lung
RXF 393 renal = test system: RXF 393 renal

SMILES: C[C@@H]1OCC(O)C([C@H]2OC(c3ccccc3)=N[C@H]2CO)O1 (some centres undefined)
- TGI (OVCAR-8 ovarian): > 100 µM
- TGI (SW-620 colon): > 100 µM
- TGI (HCT-116 colon): > 100 µM
- TGI (DU-145 prostate): > 100 µM
- TGI (HOP-92 NSCLC): > 100 µM
- TGI (SF-268 CNS): > 100 µM
- TGI (SNB-19 CNS): > 100 µM
- TGI (UO-31 renal): > 100 µM
- TGI (T-47D breast): > 100 µM
- TGI (SK-OV-3 ovarian): > 100 µM
- TGI (MDA-MB-231 breast): > 100 µM
- TGI (CCRF-CEM leukemia): > 100 µM
- TGI (SF-539 CNS): > 100 µM
- TGI (MDA-N): > 100 µM
- TGI (SK-MEL-28 melanoma): > 100 µM
- TGI (MDA-MB-435): > 100 µM
- TGI (K-562 leukemia): > 100 µM
- TGI (HL-60(TB) leukemia): > 100 µM
- TGI (EKVX NSCLC): > 100 µM
- TGI (SK-MEL-2 melanoma): > 100 µM
- TGI (CAKI-1 renal): > 100 µM
- TGI (SR leukemia): > 100 µM
- TGI (HOP-62 NSCLC): > 100 µM
- TGI (IGROV1 ovarian): > 100 µM
- TGI (SNB-75 CNS): > 100 µM
- TGI (OVCAR-4 ovarian): > 100 µM
- TGI (LOX IMVI melanoma): > 100 µM
- TGI (OVCAR-5 ovarian): > 100 µM
- TGI (ACHN renal): > 100 µM
- TGI (M14 melanoma): > 100 µM
- TGI (A498 renal): > 100 µM
- TGI (KM12 colon): > 100 µM
- TGI (NCI/ADR-RES ovarian): > 100 µM
- TGI (HT29 colon): > 100 µM
- TGI (COLO 205 colon): > 100 µM
- TGI (UACC-62 melanoma): > 100 µM
- TGI (HCC-2998 colon): > 100 µM
- TGI (UACC-257 melanoma): > 100 µM
- TGI (HS 578T breast): > 100 µM
- TGI (MOLT-4 leukemia): > 100 µM
- TGI (PC-3 prostate): > 100 µM
- TGI (U251 CNS): > 100 µM
- TGI (MCF7 breast): > 100 µM
- TGI (MALME-3M melanoma): > 100 µM
- TGI (786-0 renal): > 100 µM
- TGI (NCI-H226 lung): > 100 µM
- TGI (SK-MEL-5 melanoma): > 100 µM
- TGI (A549 NSCLC): > 100 µM
- TGI (NCI-H460 lung): > 100 µM
- TGI (NCI-H522 lung): > 100 µM
- TGI (SF-295 CNS): > 100 µM
- TGI (HCT-15 colon): > 100 µM
- TGI (TK-10 renal): > 100 µM
- TGI (RPMI-8226 leukemia): > 100 µM
- TGI (SN12C renal): > 100 µM
- TGI (OVCAR-3 ovarian): > 100 µM
- TGI (NCI-H23 lung): > 100 µM
- TGI (RXF 393 renal): > 100 µM

SMILES: C[n+]1c(-c2ccc(/C=N/Nc3ccnc(N/N=C/c4ccc(-c5cn6ccccc6[n+]5C)cc4)n3)cc2)cn2ccccc21
- TGI (OVCAR-8 ovarian): > 100 µM
- TGI (SW-620 colon): > 100 µM
- TGI (HCT-116 colon): > 100 µM
- TGI (SF-268 CNS): > 100 µM
- TGI (SNB-19 CNS): > 100 µM
- TGI (UO-31 renal): 45.4 µM
- TGI (T-47D breast): > 100 µM
- TGI (SK-OV-3 ovarian): > 100 µM
- TGI (MDA-MB-231 breast): > 100 µM
- TGI (SF-539 CNS): 40.1 µM
- TGI (MDA-N): > 100 µM
- TGI (SK-MEL-28 melanoma): 95.8 µM
- TGI (HL-60(TB) leukemia): 65.7 µM
- TGI (EKVX NSCLC): > 100 µM
- TGI (SR leukemia): > 100 µM
- TGI (HOP-62 NSCLC): > 100 µM
- TGI (IGROV1 ovarian): > 100 µM
- TGI (SNB-75 CNS): > 100 µM
- TGI (OVCAR-4 ovarian): > 100 µM
- TGI (OVCAR-5 ovarian): > 100 µM
- TGI (ACHN renal): 54.4 µM
- TGI (M14 melanoma): > 100 µM
- TGI (KM12 colon): > 100 µM
- TGI (NCI/ADR-RES ovarian): > 100 µM
- TGI (HT29 colon): > 100 µM
- TGI (COLO 205 colon): > 100 µM
- TGI (HCC-2998 colon): > 100 µM
- TGI (UACC-257 melanoma): > 100 µM
- TGI (HS 578T breast): 93.1 µM
- TGI (MOLT-4 leukemia): > 100 µM
- TGI (PC-3 prostate): > 100 µM
- TGI (786-0 renal): > 100 µM
- TGI (SK-MEL-5 melanoma): > 100 µM
- TGI (A549 NSCLC): > 100 µM
- TGI (NCI-H460 lung): > 100 µM
- TGI (NCI-H522 lung): > 100 µM
- TGI (SF-295 CNS): 79.6 µM
- TGI (HCT-15 colon): > 100 µM
- TGI (TK-10 renal): > 100 µM
- TGI (RPMI-8226 leukemia): 73.3 µM
- TGI (SN12C renal): > 100 µM
